A value given as a limit tells only on which side of the number the result lay.

By IC50 is commonly meant the concentration at which inhibition is half-maximal. For orientation: EC50 means the concentration giving half of the maximal effect. Read a high EC50 as a need for much substance.

The target of one assay is Phosphodiesterase 3 (Homo sapiens, UniProt Q14432+Q13370). In words: Inhibition of guinea pig heart Phosphodiesterase 3. It is filed as protein assay, Cavia porcellus. Particulars: target entry is the homologue from another species.
For the next assay, the species on record is Cavia porcellus. In words: Increasing force in skinned fibers at constant buffered Ca-concentration. The class given is functional.

As for `COc1ccc(C(=O)N2CCCc3cc(C4=NNC(=O)SC4C)ccc32)cc1OC` (stereo in doubt; form 1), the IC50 on Phosphodiesterase 3 amounted to 0.06 µM. In addition, the EC50 in the assay listed under Cavia porcellus was determined as 4.8 µM.
The corresponding values for `COc1ccc(C(=O)N2CCCc3cc(C4=NNC(=O)SC4C)ccc32)cc1OC` (stereo in doubt; form 2) are 0.05 µM and above 100 µM.
For `COc1ccc(C(=O)N2CCCc3cc(C4=NNC(=O)SC4C)ccc32)cc1OC` (stereo in doubt; form 3), in that order: 1.94 µM and 1.7 µM.

The record behind these values is ChEMBL document CHEMBL1126424, “Preparation of the enantiomers of the novel CA-sensitizer EMD 53 998” (Bioorg Med Chem Lett, 1992).
